Legend:
[1] = test system: lower density lipoproteins (LDL+VLDL); experiment: Inhibition of cupric ion-induced oxidation of lower density lipoproteins (antioxidant activity); format: biochemical, humans; conditions: inhibition of lipid peroxide formation in LDL+VLDL, 25 μM cupric ion, 37° C., 6 hours; matrix sample based on CoQ10 conc.
Procedure: A weighed portion (50-500 mg) of solid sample of CoQ10 contained in a glycoprotein matrix was mixed with 5 ml of 50% methanol/water and heated at 90° C. in a plastic screw-capped tube with intermittent shaking for 2 hours to determine the unconjugated (“free”) phenols present. Another weighed portion of the same sample was heated with 5 ml of 1.2 M HCl in 50% aqueous methanol for 2 hours at 90° C. to measure the unconjugated plus conjugated (“total”) phenols. The extracts, each done in duplicate, were then filtered with a 0.45 μm filter and stored at −20° C. until assay. Values for free polyphenols and total phenols for commercial CoQ10 are known.
The phenol content in the extracts was measured by the Folin-Cocialteu reagent (Sigma Chemical Co., St. Louis, Mo.) using catechin (Sigma) as a standard. A blank, catechin standards and samples were added to the Folin reagent in a cuvette and after 20 minutes the color was measured at 720 nm vs. a blank. […]
The amount of lipid peroxides was measured using thiobarbituric acid and fluorometry. The % of inhibition of lipid peroxide formation was calculated vs. a control with no added antioxidants. The IC50 value in μM units was then calculated.
The amount of CoQ10 in the composition of the invention was determined by HPLC using UV detector, C18 column (Perkin Elmer Pecosil 5, 15 cm) and a solvent of 75% methanol and 25% isopropanol. […]

[2] = Stability of CoQ10 in a 50° C. oven open to the air (HPLC); format: physicochemical; conditions: for Loss of CoQ10 after 36 days at 50° C. (equivalent to 3 months at room temperature) / Loss of CoQ10 after 72 days at 50° C. (equivalent to 6 months at room temperature): open to the air
Procedure: 100 mg of USP CoQ10 (Sigma) and CoQ10 contained in a glycoprotein matrix from Example 1 was placed in a 10 ml beaker in a 50° C. oven open to the air. The amount of CoQ10 remaining was analyzed by HPLC using a C18 column (Perkin Elmer Pecosil 5, 15 cm) and a solvent of 75% methanol and 25% isopropanol.

COC1=C(OC)C(=O)C(C/C=C(\C)CC/C=C(\C)CC/C=C(\C)CC/C=C(\C)CC/C=C(\C)CC/C=C(\C)CC/C=C(\C)CC/C=C(\C)CC/C=C(\C)CCC=C(C)C)=C(C)C1=O [CoQ10 (USP), Coenzyme Q10]
IC50 [1]: 1.33 µM
Loss of CoQ10 at 0 days ([2]; 0 days): 0%
Loss of CoQ10 after 36 days at 50° C. (equivalent to 3 months at room temperature) ([2]; listed as USP CoQ10): 6.8%
Loss of CoQ10 after 36 days at 50° C. (equivalent to 3 months at room temperature) ([2]; listed as commercial CoQ10): 6.8%
Loss of CoQ10 after 72 days at 50° C. (equivalent to 6 months at room temperature) ([2]; listed as USP CoQ10): 16.8%
Loss of CoQ10 after 72 days at 50° C. (equivalent to 6 months at room temperature) ([2]; listed as commercial sample): 16.8%

Source: patent US20060263344A1, “Novel probiotic compositions and methods of using the same” (priority 2003, published 2006)
